Assay results: patent US20160346266A1, “REDUCTION OR PREVENTION OF ALCOHOL REACTION WITH DIETARY SUPPLEMENTS” (NOGLO LLC, priority 2012, published 2016)

Key:
glutathione = conditions: supplementation, two weeks; cited from earlier work
NAD = conditions: nicotinamide supplementation; one study; cited from earlier work
[1] = tested on: volunteers who experience all symptoms of the alcohol reaction; test: Studies in individuals (Example 5): symptoms of the alcohol reaction after two standard alcohol beverages; type: in vivo, human; conditions: Subject 4; 1500 mg daily for two weeks + dose one hour before two standard alcohol beverages
Procedure: In order to evaluate the efficacy of certain embodiments of the invention, subjects took various forms of the supplements daily for two weeks. The subjects then consumed two standard alcohol beverages and their symptoms were evaluated. One hour prior to drinking the alcohol beverages, the subjects also consumed another dose of the formulation. Overt physical symptoms and self-reported physical symptoms were used as assessments for the alcohol reaction. These experimental tests include eleven subjects. All experimental subjects were unpaid volunteers who experience all symptoms of the alcohol reaction. The following symptoms were assessed: facial redness, heart rate, self-evaluated body temperature, headache, nausea, and general physical discomfort. These are symptoms of the alcohol reaction that have all been directly linked with an increase in blood acetaldehyde.

Compound	increase levels of glutathione (glutathione) [%]	raising NAD concentrations (NAD) [fold]	facial redness [1]	heart rate [1]
O=C1O[C@H]([C@@H](O)CO)C(O)=C1O [Vitamin C]	50			
NC(=O)c1cccnc1 [nicotinamide]		24	reductions	reductions
